Measured values published in ChEMBL document CHEMBL1201862, “PubChem BioAssay data set” (2004).
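48-hour exposure; five concentrations; linearly interpolated endpoints. At the GI50, growth is halved.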 The source made the active and inactive calls. Rule as the data show it: active = GI50 up to about 1.1 µM and inactive = higher.

Legend:
Test in all cases: NCI-60 cell line screen, 48 h
SNB-19 = system: SNB-19
SK-MEL-5 = system: SK-MEL-5
MOLT-4 = system: MOLT-4
NCI-H23 = system: NCI-H23
OVCAR-4 = system: OVCAR-4
K562 = system: K562
SK-OV-3 = system: SK-OV-3
EKVX = system: EKVX
Malme-3M = system: Malme-3M
ACHN = system: ACHN
786-0 = system: 786-0
UO-31 = system: UO-31
RXF 393 = system: RXF 393
COLO 205 = system: COLO 205
TK-10 = system: TK-10
A498 = system: A498

Measured: GI50

NCCCOCC(=O)O
inactive: SNB-19 > 100 µM | SK-MEL-5 > 100 µM | MOLT-4 > 100 µM | NCI-H23 > 100 µM | OVCAR-4 > 100 µM | K562 > 100 µM | SK-OV-3 > 100 µM | EKVX > 100 µM | Malme-3M > 100 µM | ACHN > 100 µM | 786-0 > 100 µM | UO-31 > 100 µM | RXF 393 > 100 µM | COLO 205 > 100 µM | TK-10 > 100 µM

CC(C)(CN1CCCCC1)C(=O)CC(SCCS(=O)(=O)O)c1ccc(Br)cc1 (stereo not drawn)
inactive: SNB-19 2.34 µM | A498 2.1 µM | SK-MEL-5 1.8 µM | MOLT-4 2.23 µM | NCI-H23 2.34 µM | OVCAR-4 2.03 µM | K562 1.21 µM | SK-OV-3 2.93 µM | EKVX 2.92 µM | Malme-3M 1.39 µM | ACHN 1.67 µM | 786-0 1.26 µM | UO-31 1.47 µM | RXF 393 1.41 µM | COLO 205 1.45 µM | TK-10 2.56 µM

c1cnc2c(c1)-n1cccc1C1(CCCCC1)NN2
inactive: SNB-19 > 100 µM | SK-MEL-5 71.3 µM | MOLT-4 24.5 µM | OVCAR-4 > 100 µM | K562 45.1 µM | EKVX 82.2 µM | Malme-3M 62.1 µM | ACHN 88.3 µM | 786-0 > 100 µM | UO-31 26.9 µM | COLO 205 > 100 µM | TK-10 75.3 µM

CC(=O)OC1(C(C)=O)CC2(c3ccccc3)OC1(c1ccccc1)c1ccccc12 (stereo not drawn)
inactive: SNB-19 7.73 µM | SK-MEL-5 3.37 µM | MOLT-4 5.81 µM | NCI-H23 8.34 µM | SK-OV-3 46.9 µM | EKVX 5.26 µM | Malme-3M 18.6 µM | ACHN 16.6 µM | 786-0 31 µM | UO-31 12 µM | RXF 393 13 µM | COLO 205 7.67 µM | TK-10 17.6 µM

CCOC(=O)c1sc2c(sc(=O)n2-c2ccccc2)c1O
inactive: SNB-19 > 100 µM | A498 > 100 µM | SK-MEL-5 > 100 µM | MOLT-4 > 100 µM | NCI-H23 65.8 µM | OVCAR-4 > 100 µM | K562 > 100 µM | SK-OV-3 > 100 µM | EKVX > 100 µM | Malme-3M > 100 µM | ACHN > 100 µM | 786-0 > 100 µM | UO-31 > 100 µM | RXF 393 > 100 µM | COLO 205 45.3 µM | TK-10 > 100 µM

O=C(CCN1CCC(CCO)CC1)Nc1ccc2c(c1)C(=O)c1ccc(NC(=O)CCN3CCC(CCO)CC3)cc1C2=O
inactive: SNB-19 16.9 µM | A498 19.9 µM | SK-MEL-5 19.4 µM | MOLT-4 4.13 µM | NCI-H23 26.5 µM | OVCAR-4 12.5 µM | K562 8.05 µM | SK-OV-3 7.96 µM | EKVX 32.5 µM | Malme-3M 11 µM | ACHN 41.9 µM | 786-0 6.7 µM | UO-31 34.4 µM | RXF 393 30.1 µM | COLO 205 10.7 µM | TK-10 24.7 µM

O=C1/C(=C(\Nc2ccccc2)c2ccccc2)C=NN1c1ccccc1
inactive: SNB-19 > 100 µM | A498 > 100 µM | SK-MEL-5 26.7 µM | MOLT-4 29.3 µM | NCI-H23 56.8 µM | OVCAR-4 76.9 µM | K562 72.8 µM | SK-OV-3 > 100 µM | EKVX > 100 µM | Malme-3M 59 µM | ACHN 61 µM | 786-0 > 100 µM | UO-31 > 100 µM | RXF 393 22.1 µM | COLO 205 > 100 µM | TK-10 > 100 µM

COC(=O)C(=O)C(C(=O)C=C(C)C)C(=O)C(=O)Nc1nc2ccc([N+](=O)[O-])cc2s1 (stereo not drawn)
inactive: SNB-19 > 100 µM | A498 30.5 µM | SK-MEL-5 35.7 µM | MOLT-4 36.4 µM | NCI-H23 24.9 µM | OVCAR-4 52.5 µM | K562 46.2 µM | SK-OV-3 39.9 µM | EKVX 33.9 µM | Malme-3M > 100 µM | ACHN 33.3 µM | 786-0 > 100 µM | UO-31 41.5 µM | RXF 393 12.9 µM | COLO 205 > 100 µM | TK-10 38.5 µM

CC(=O)Nc1ccc(/C=C/C(=O)c2sc(C(N)=S)nc2C)cc1
inactive: A498 > 100 µM | SK-MEL-5 > 100 µM | MOLT-4 > 100 µM | NCI-H23 > 100 µM | K562 > 100 µM | SK-OV-3 > 100 µM | EKVX > 100 µM | Malme-3M > 100 µM | 786-0 > 100 µM | UO-31 > 100 µM | RXF 393 > 100 µM | COLO 205 > 100 µM | TK-10 > 100 µM
